Measurements: patent publication US4244967A, “Antiphlogistic pharmaceutical compositions containing a phenylethanolamine and methods of use” (priority 1978, dated 1981)
Several values for one entry are separate records, joined by “and”; a condition that tells them apart may be missing. Equal entries are not always repeated.

What was measured:
[1] = system: human polymorphnuclear leucocytes (PMN); experiment: Inhibition of the release of lysosomal β-glucuronidase from human polymorphnuclear leucocytes (PMN) during phagocytosis of zymosan particles; format: cell-based; details: in vitro; for IC20: Homo sapiens, Leucocyte, 20% inhibition of release (EC20, not EC50), zymosan-phagocytosis, Fieller confidence limits given
Method: The compounds were tested for their inhibitory effect on the release of lyosomal enzymes (β-glucuronidase was the lysomal marker-enzyme) from human polymorphnuclear leucocytes (PMN) during the phagocytosis of zymosan particles. According to WEISSMANN, the release of lyosomal enzymes in the course of the phagocytosis of immune complexes plays a significant role for the "self perpetuation" in rheumatoid arthritis. The test was performed according to the method of WEISSMANN et al. [J. Exp. Med. 134, 149s-165s (1971)]. The buffer system and the incubation times were changed, the number of the zymosan particles and the number of PMN was standardized. From the inhibiting effects produced by the test substance in comparison with the zymosan control, an EC20 with confidence limits according to FIELLER (Quart. J. Pharm. Pharmacol. 17, 117-123 (1944) was calculated by linear regression analysis according to LINDER [Stat. Methoden, 4th Ed., 148-162, published by Birkhauser, Basel, Switzerland (1964)] as the end concentration of the test substance that produced a 20% inhibition of the release of lysosomal β-glucuronidasefrom human polymorphnuclear leucocytes in vitro during the zymosan-phagocytosis.
Effect on the release of lysosomal β-glucuronidase from human polymorph-nucleic leucocytes under zymosan-phagocytosis.

[2] = long-lasting in vivo activity compared with other β-mimetics; details: no data given
[3] = enteral absorption; format: in vivo; details: no data given

SMILES	IC20 [1]	in vivo activity, duration [2]	stronger inhibitor of the release of lysosomal enzymes than terbutaline sulfate ([1]; relative to terbutaline sulfate (B))	enteral absorption [3]
CC(C)(C)NCC(O)c1cc(O)cc(O)c1 (centres unmarked) [B, reference compound]	2.4 µM and 0.658 µg/mL			
CCOC(=O)Nc1c(F)cc(C(O)CNC(C)(C)C)cc1C#N.Cl (centres unmarked) [Compound A, 1-(4-ethoxycarbonylamino-3-cyano-5-fluoro-phenyl)-2-tert. butylamino-ethanol hydrochloride]	130 nM and 0.0468 µg/mL	long-lasting	about 18 times stronger	very good
